Assay results from ChEMBL document CHEMBL1127757, “A non-steroidal diene acid inhibitor of human type 2 stereoid 5-reductase” (Bioorg Med Chem Lett, 1994).

What was measured:
[1] = biological target: T1, 3-oxo-5-alpha-steroid 4-dehydrogenase 1 (Homo sapiens, UniProt P18405); assay: Apparent inhibition constant towards human Steroid 5-alpha-reductase type I; […]
T1 sequence (P18405 whole entry): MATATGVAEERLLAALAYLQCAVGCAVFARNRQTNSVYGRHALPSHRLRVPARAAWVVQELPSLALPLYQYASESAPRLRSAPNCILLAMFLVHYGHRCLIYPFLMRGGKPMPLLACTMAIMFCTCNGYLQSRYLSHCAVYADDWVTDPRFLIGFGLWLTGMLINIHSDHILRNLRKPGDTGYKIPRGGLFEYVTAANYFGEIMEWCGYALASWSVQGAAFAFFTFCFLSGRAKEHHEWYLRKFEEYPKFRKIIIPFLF

[2] = biological target: T2, 3-oxo-5-alpha-steroid 4-dehydrogenase 2 (Homo sapiens) (UniProt P31213); assay: Percent inhibition towards human Steroid 5-alpha-reductase type 2 at 2.5 uM concentration
T2 sequence (whole entry): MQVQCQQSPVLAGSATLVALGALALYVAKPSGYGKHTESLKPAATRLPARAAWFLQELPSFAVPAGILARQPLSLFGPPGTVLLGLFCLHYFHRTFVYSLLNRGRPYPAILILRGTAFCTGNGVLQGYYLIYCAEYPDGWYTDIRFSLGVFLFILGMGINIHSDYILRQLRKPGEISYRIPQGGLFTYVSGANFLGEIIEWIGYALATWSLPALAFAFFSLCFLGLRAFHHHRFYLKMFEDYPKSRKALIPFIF

[3] = biological target: T3, 3-oxo-5-alpha-steroid 4-dehydrogenase 2 (Homo sapiens, UniProt P31213); assay: Apparent inhibition constant towards human Steroid 5-alpha-reductase type 2; conditions: read-out: Ki app
T3 sequence (P31213 whole entry): T2 sequence (whole entry)

[4] = biological target: T1, 3-oxo-5-alpha-steroid 4-dehydrogenase 1; assay: Apparent inhibition constant towards human Steroid 5-alpha-reductase type I; conditions: read-out: Ki app

Row | Compound | Ki app [1] | inhibition [2] [%] | Ki [3] [µM] | Ki [4] [µM]
1 | COc1ccc2c(c1)CC=C1C=C(C(=O)O)CCC12C (centres undefined) | No inhibition | 30 | > 2.5 | –
2 | CC(C)(C)NC(=O)[C@H]1CC[C@H]2[C@@H]3CC[C@H]4NC(=O)C=C[C@]4(C)[C@H]3CC[C@]12C [FINASTERIDE] | – | – | 0.002 | 0.1
3 | COc1cccc2c1CC=C1C=C(C(=O)O)CCC12C (centres undefined) | – | – | 1.6 | 1.9
4 | COc1cccc2c1CC=C1C=C(P(O)O)CCC12C (centres undefined) | – | – | 1.6 | 1.9
5 | CN1C(=O)CCC2(C)c3ccc(Cl)cc3CCC12 (centres undefined) | – | – | > 5 | 0.02
6 | CC(C)(C)NC(=O)[C@H]1CC[C@H]2[C@@H]3CC=C4C=C(C(=O)O)CC[C@]4(C)[C@H]3CC[C@]12C [EPRISTERIDE] | – | – | 0.0002 | 0.41
7 | CC12CCC(C(=O)O)=CC1=CCc1cc(Cl)ccc12 (centres undefined) | – | – | 0.26 | 1.2
8 | CC(C)N(C(=O)[C@H]1CCC2C3CC=C4C=C(P(O)O)CC[C@]4(C)C3CC[C@@]21C)C(C)C (some centres undefined) | – | – | 0.0008 | 4.9
9 | CC12CCC(P(O)O)=CC1=CCc1cc(Cl)ccc12 (centres undefined) | – | – | 1.6 | 1.9
